Laboratory results from patent US5382586A, “Aryl (or heteroaryl)piperazinylalkylazole derivatives, their preparation and their application as medicaments” (priority 1991, dated 1995).

Test system: mice, abstinence syndrome induced by cocaine, diazepam, alcohol or nicotine
Assay: light box/dark box test: inhibition of the abstinence syndrome
Assay type: in vivo, mouse
Set-up: Time in box, dark (D) / Latent period L-D: unit not given here
Protocol: The light box/dark box test described by B. Costall et al. (J. Phar. Pharmacol., 1988, 40: 494-500) is used. The mouse is placed in the light zone of a box divided into two compartments, one brightly illuminated, the light box, and the other with little illumination, the dark box.
1) The number of times the mouse stands up on the hind paws in each compartment during a 5 minute period is counted (see Column 1 of Table V).
2) The activity in each compartment is given by counting the number of crossings through the squares which form the divisions of each compartment (see Column 2 of Table V).
3) The time passed in the dark box during the 5 minute counting period is determined (see Column 3 of Table 5).
4) The initial latent period is determined, that is to say the time which elapses after the animal is placed in the light box, at the start of the test, before it enters the dark box (see Column 4 of Table 5).
1) Dependency on a given treatment (diazepam, cocaine, alcohol or nicotine) employing daily administration over a period of 7 or 14 days.
Diazepam: 10 mg/kg i.p. twice per day over a period of 7 days.
Cocaine: 1 mg/kg i.p. over a period of 14 days.
Alcohol: Administered at 8% weight/volume in the drinking water over a period of 14 days. Nicotine: 0.1 mg/kg i.p. twice per day over a period of 7 days.
3) Other different groups receive, in addition to diazepam, cocaine, alcohol or nicotine, a concomitant treatment with products which are the subject of the present invention and, by way of comparison, with buspirone or ipsapirone.
The product described and the doses tested were: 4,5-dichloro-2-methyl-1-{4-[4-(2-pyrimidinyl)-1-piperazinyl]-butyl}-1H-imidazole citrate.
1 μg/kg p.o. twice per day.

[1] = 24 h after stopping alcohol (alone, or with the named product; Ex. 42 at 1 μg/kg p.o. twice per day)
[2] = 24 h after stopping cocaine (alone, or with the named product; Ex. 42 at 1 μg/kg p.o. twice per day)
[3] = 24 h after stopping diazepam (alone, or with the named product; Ex. 42 at 1 μg/kg p.o. twice per day)
[4] = 24 h after stopping nicotine (alone, or with the named product; Ex. 42 at 1 μg/kg p.o. twice per day)

Cc1nc(Cl)c(Cl)n1CCCCN1CCN(c2ncccn2)CC1.O=C(O)CC(O)(CC(=O)O)C(=O)O [Example 42, 4,5-dichloro-2-methyl-1-{4-[4-(2-pyrimidinyl)-1-piperazinyl]-butyl}-1H-imidazole citrate]
Activity within 5 min period, dark box (D) [1]: 23 | Activity within 5 min period, light box (L) [1]: 97 | Latent period L-D [1]: 20 | Number of times standing erect within 5 min. period, dark box (D) [1]: 17 | Number of times standing erect within 5 min. period, light box (L) [1]: 86 | Time in box, dark (D) [1]: 26 | Activity within 5 min period, dark box (D) [2]: 23 | Activity within 5 min period, light box (L) [2]: 92 | Latent period L-D [2]: 26 | Number of times standing erect within 5 min. period, dark box (D) [2]: 20 | Number of times standing erect within 5 min. period, light box (L) [2]: 86 | Time in box, dark (D) [2]: 30 | Activity within 5 min period, dark box (D) [3]: 19 | Activity within 5 min period, light box (L) [3]: 96 | Latent period L-D [3]: 28 | Number of times standing erect within 5 min. period, dark box (D) [3]: 17 | Number of times standing erect within 5 min. period, light box (L) [3]: 85 | Time in box, dark (D) [3]: 36 | Activity within 5 min period, dark box (D) [4]: 20 | Activity within 5 min period, light box (L) [4]: 102 | Latent period L-D [4]: 23 | Number of times standing erect within 5 min. period, dark box (D) [4]: 18 | Number of times standing erect within 5 min. period, light box (L) [4]: 90 | Time in box, dark (D) [4]: 29 | anxiolytic response when the administration is stopped (diazepam, cocaine, alcohol or nicotine stopped, 1 μg/kg p.o. twice per day): maintains a significant anxiolytic response | inhibition of the abstinence syndrome (induced by diazepam, cocaine, alcohol and nicotine, 1 μg/kg p.o. twice per day): inhibits the abstinence syndrome
